Test results from ChEMBL document CHEMBL1250451, “Mechanistic insights into a Ca2+-dependent family of alpha-mannosidases in a human gut symbiont” (Nat Chem Biol, 2010).
Calls of active or inactive are those of the source. The calls are words filed in the database; no cut-off is given here.

Tests used:
Type in all cases: protein assay
[1] = target: T1, Alpha-1,2-mannosidase (BT_3527) (Bacteroides thetaiotaomicron) (UniProt Q8A1Y1); test: Activity of Bacteroides thetaiotaomicron GH92 alpha-mannosidase GH92 alpha-mannosidase 3527 assessed as mannose release at 1 mM after 16 hrs by HPLC relative to untreated control after 16 hrs by HPLC
T1 sequence (whole entry): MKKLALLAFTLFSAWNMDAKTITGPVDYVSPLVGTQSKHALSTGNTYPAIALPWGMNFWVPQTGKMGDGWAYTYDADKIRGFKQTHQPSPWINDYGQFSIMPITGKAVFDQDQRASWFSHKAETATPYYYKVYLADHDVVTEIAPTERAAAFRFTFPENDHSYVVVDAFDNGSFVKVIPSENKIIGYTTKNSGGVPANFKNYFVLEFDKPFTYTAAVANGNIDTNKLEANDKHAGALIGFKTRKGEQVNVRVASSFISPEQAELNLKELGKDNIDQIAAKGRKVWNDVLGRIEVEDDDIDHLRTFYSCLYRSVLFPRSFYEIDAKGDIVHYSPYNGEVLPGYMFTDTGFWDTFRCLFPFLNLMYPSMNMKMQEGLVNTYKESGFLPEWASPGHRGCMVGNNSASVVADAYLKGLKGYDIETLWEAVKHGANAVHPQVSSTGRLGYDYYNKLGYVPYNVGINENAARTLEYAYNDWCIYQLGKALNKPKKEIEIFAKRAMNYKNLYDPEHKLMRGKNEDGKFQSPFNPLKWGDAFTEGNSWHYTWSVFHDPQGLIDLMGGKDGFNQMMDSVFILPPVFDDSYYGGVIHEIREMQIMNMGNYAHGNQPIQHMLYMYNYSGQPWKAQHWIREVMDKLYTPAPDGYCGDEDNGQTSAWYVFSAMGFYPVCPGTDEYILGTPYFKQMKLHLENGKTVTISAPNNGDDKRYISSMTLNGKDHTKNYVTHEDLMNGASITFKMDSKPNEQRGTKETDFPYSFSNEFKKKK

[2] = target: T2, Alpha-1,2-mannosidase (BT_4092) (Bacteroides thetaiotaomicron) (UniProt Q8A0C9); test: Activity of Bacteroides thetaiotaomicron GH92 alpha-mannosidase GH92 alpha-mannosidase 4092 assessed as mannose release at 1 mM after 16 hrs by HPLC relative to untreated control after 16 hrs by HPLC
T2 sequence (whole entry): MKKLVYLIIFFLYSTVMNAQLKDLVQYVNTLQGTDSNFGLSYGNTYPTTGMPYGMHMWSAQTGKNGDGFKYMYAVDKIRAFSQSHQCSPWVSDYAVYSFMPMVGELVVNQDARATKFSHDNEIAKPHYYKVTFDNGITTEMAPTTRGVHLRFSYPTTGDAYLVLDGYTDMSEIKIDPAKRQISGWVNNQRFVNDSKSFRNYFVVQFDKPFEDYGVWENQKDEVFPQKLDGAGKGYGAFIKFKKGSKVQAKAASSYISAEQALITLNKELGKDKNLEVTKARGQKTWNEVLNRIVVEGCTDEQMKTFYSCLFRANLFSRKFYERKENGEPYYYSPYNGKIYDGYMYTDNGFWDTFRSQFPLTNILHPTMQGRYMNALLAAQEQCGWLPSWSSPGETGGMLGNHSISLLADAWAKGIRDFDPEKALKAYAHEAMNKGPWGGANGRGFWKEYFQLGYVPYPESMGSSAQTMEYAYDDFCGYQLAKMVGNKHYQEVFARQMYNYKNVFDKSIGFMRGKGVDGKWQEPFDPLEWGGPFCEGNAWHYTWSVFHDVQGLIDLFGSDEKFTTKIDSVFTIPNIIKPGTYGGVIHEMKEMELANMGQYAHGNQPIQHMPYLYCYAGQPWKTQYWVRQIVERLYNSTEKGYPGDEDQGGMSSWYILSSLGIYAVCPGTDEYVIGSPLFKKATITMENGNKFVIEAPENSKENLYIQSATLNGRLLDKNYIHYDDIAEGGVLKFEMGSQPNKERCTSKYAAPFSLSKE

[3] = target: T3, Alpha-1,2-mannosidase family protein (BT_4093) (Bacteroides thetaiotaomicron) (UniProt Q8A0C8); test: Activity of Bacteroides thetaiotaomicron GH92 alpha-mannosidase GH92 alpha-mannosidase 4093 assessed as mannose release at 1 mM after 16 hrs by HPLC relative to untreated control after 16 hrs by HPLC
T3 sequence (whole entry): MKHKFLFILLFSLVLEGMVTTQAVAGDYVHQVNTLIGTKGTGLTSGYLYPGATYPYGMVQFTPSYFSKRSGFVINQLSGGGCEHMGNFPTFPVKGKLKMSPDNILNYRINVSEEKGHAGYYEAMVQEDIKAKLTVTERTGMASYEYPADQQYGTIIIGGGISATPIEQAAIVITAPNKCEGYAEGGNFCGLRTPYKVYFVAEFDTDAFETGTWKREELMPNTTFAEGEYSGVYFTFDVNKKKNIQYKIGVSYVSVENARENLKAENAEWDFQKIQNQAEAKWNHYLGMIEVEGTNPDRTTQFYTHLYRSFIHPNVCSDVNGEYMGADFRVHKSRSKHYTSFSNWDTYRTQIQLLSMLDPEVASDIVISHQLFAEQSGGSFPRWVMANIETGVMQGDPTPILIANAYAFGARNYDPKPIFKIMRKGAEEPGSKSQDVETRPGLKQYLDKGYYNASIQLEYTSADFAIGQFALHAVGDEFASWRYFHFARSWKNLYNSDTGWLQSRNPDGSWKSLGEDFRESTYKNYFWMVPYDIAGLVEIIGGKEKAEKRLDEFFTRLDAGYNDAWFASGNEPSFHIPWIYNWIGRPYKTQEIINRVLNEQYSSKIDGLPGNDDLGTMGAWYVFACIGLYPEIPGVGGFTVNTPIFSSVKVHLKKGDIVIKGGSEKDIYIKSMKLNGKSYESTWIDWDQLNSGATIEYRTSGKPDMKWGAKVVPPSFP

| Activity [1] | Activity [2] | Activity [3] | SMILES |
| --- | --- | --- | --- |
| inactive | 100% | inactive | OC[C@H]1O[C@H](O[C@H]2[C@@H](O)[C@H](O)[C@@H](CO)O[C@@H]2O)[C@@H](O)[C@@H](O)[C@@H]1O |
| inactive | 0.34% | inactive | OC[C@H]1O[C@H](O[C@@H]2[C@H](O)[C@@H](O)O[C@H](CO)[C@H]2O)[C@@H](O)[C@@H](O)[C@@H]1O |
| inactive | 0.73% | 100% | OC[C@H]1O[C@H](O[C@H]2[C@H](O)[C@H](O)[C@@H](O)O[C@@H]2CO)[C@@H](O)[C@@H](O)[C@@H]1O |
| inactive | inactive | inactive | OC[C@H]1O[C@H](OC[C@H]2O[C@H](O)[C@@H](O)[C@@H](O)[C@@H]2O)[C@@H](O)[C@@H](O)[C@@H]1O |
